# Test results published in publication PMC7696167 (Pharmaceutics, 2020).
# Experiments:
# [1] = Population pharmacokinetic model of oral roscovitine and metabolite M3, first dose, ROSCO-CF trial
# [2] = tested on: CYP2B6; parameters: method as in PMID 18048486; conditions: cited from earlier work
# [3] = tested on: P-glycoprotein 1 (P-gp, MDR1 or ABCB1) efflux pump; parameters: method as in PMID 20699410; conditions: cited from earlier work
# [4] = tested on: CYP3A4; parameters: method as in PMID 18048486; conditions: cited from earlier work
# [5] = population estimate, adult CF patients, oral
# [6] = population estimate, covariate effect
Structure (SMILES),ke: elimination rate of the metabolite ([1]; population estimate) [h⁻¹],substrate for CYP2B6 [2],"rate of absorption in patients treated with PPIs ([1]; oral roscovitine, adult CF patients)",CV1: coefficient of variation of first inverse Gaussian absorption function ([1]; population estimate),CV2: coefficient of variation of second inverse Gaussian absorption function ([1]; population estimate),k12: distribution rate to the peripheral compartment ([1]; population estimate) [h⁻¹],k21: distribution rate from the peripheral compartment ([1]; population estimate) [h⁻¹],kmet: systemic conversion rate of roscovitine in its carboxylate metabolite M3 ([1]; population estimate) [h⁻¹],"T1max: time at which the first inverse Gaussian absorption function reaches its maximum [1, 5] [h]","dT2max (T2max = T1max + dT2max), inverse Gaussian absorption parameter [1, 5] [h]","π1: weight associated with the first input fraction [1, 5]","D50: oral dose of roscovitine for which Fdose is 50% ([1]; population estimate, adult CF patients, oral 200-800 mg) [µmol]","β (PPI = 1) on T1max: coefficient for modification of T1max in patients taking PPI [1, 6]","β height (cm) on V: coefficient for the effect of height on V/F [1, 6]","V/F: apparent volume of the central compartment after oral administration ([1]; population estimate, single parameter common to roscovitine and M3, reference height 170 cm) [L]",substrate for P-glycoprotein 1 efflux pump [3],substrate for CYP3A4 [4]
CC[C@@H](Nc1nc(NCc2ccccc2)c2ncn(C(C)C)c2n1)C(=O)O [M3],2.58,,,,,,,,,,,,,,,,
"CC[C@H](CO)Nc1nc(NCc2ccccc2)c2ncn(C(C)C)c2n1 [roscovitine, (R)-roscovitine]",,substrate,slower rate of absorption,0.542,0.354,1.82,0.768,2.07,0.676,1.04,0.285,1190,0.680,6.47,62.2,substrate,substrate
